Experimental data: patent US20030078251A1, “Benzoxazepinones and their use as squalene synthase inhibitors” (priority 2000, published 2003)

| melting point | SMILES |
| --- | --- |
| 171 to 173 °C | COc1ccc(C(=O)O)cc1NC(=O)C[C@H]1O[C@H](c2cccc(OC)c2OC)c2cc(Cl)ccc2N(CC(C)(C)CO)C1=O [Example 102, 3-[[(3R,5S)-7-Chloro-5-(2,3-dimethoxyphenyl)-1-(3-hydroxy-2,2-dimethylpropyl)-2-oxo-1,2,3,5-tetrahydro-4,1-benzoxazepin-3-yl]acetyl]amino-4-methoxybenzoic acid] |
| 163 to 166 °C | COc1cccc([C@H]2O[C@H](CC(=O)Nc3cc(C(=O)O)ccc3F)C(=O)N(CC(C)(C)CO)c3ccc(Cl)cc32)c1OC [Example 106, 3-[[[(3R,5S)-7-Chloro-5-(2,3-dimethoxyphenyl)-1-(3-hydroxy-2,2-dimethylpropyl)-2-oxo-1,2,3,5-tetrahydro-4,1-benzoxazepin-3-yl]acetyl]amino]-4-fluorobenzoic acid] |
| 115 to 118 °C | COc1cccc([C@H]2O[C@H](CC(=O)Nc3cc(CCCCC(=O)O)ccc3F)C(=O)N(CC(C)(C)CO)c3ccc(Cl)cc32)c1OC [Example 108, 5-[3-[[[(3R,5S)-7-Chloro-5-(2,3-dimethoxyphenyl)-1-(3-hydroxy-2,2-dimethylpropyl)-2-oxo-1,2,3,5-tetrahydro-4,1-benzoxazepin-3-yl]acetyl]amino]-4-fluorophenyl]pentanoic acid] |
| 215 to 216 °C | COc1ccc(CC(=O)O)cc1NC(=O)C[C@H]1O[C@H](c2cccc(OC)c2OC)c2cc(Cl)ccc2N(CC(C)(C)CO)C1=O [Example 109] |
| 119 to 121 °C | COc1ccc(CCCC(=O)O)cc1NC(=O)C[C@H]1O[C@H](c2cccc(OC)c2OC)c2cc(Cl)ccc2N(CC(C)(C)CO)C1=O [Example 110, 4-[3-[[[(3R,5S)-7-Chloro-5-(2,3-dimethoxyphenyl)-1-(3-hydroxy-2,2-dimethylpropyl)-2-oxo-1,2,3,5-tetrahydro-4,1-benzoxazepin-3-yl]acetyl]amino]-4-methoxyphenyl]butanoic acid] |
| 119 to 122 °C | COc1cccc([C@H]2O[C@H](CC(=O)Nc3cccc(CCCC(=O)O)c3)C(=O)N(CC(C)(C)CO)c3ccc(Cl)cc32)c1OC [Example 111, 4-[3-[[[(3R,5S)-7-Chloro-5-(2,3-dimethoxyphenyl)-1-(3-hydroxy-2,2-dimethylpropyl)-2-oxo-1,2,3,5-tetrahydro-4,1-benzoxazepin-3-yl]acetyl]amino]phenyl]butanoic acid] |
| 178 to 179 °C | COc1cccc([C@H]2O[C@H](CC(=O)Nc3cc4c(c(C(=O)O)c3)CCCC4)C(=O)N(CC(C)(C)CO)c3ccc(Cl)cc32)c1OC [Example 112, 3-[[[(3R,5S)-7-Chloro-5-(2,3-dimethoxyphenyl)-1-(3-hydroxy-2,2-dimethylpropyl)-2-oxo-1,2,3,5-tetrahydro-4,1-benzoxazepin-3-yl]acetyl]amino]-5,6,7,8-tetrahydro-1-naphthoic acid] |
| 123 to 126 °C | COc1cccc([C@@H]2O[C@@H](CC(=O)NCCc3occc3C(=O)O)C(=O)N(CC(C)(C)CO)c3ccc(Cl)cc32)c1OC [Example 119, 2-[2-[[[(3S,5R)-7-Chloro-5-(2,3-dimethoxyphenyl)-1-(3-hydroxy-2,2-dimethylpropyl)-2-oxo-1,2,3,5-tetrahydro-4,1-benzoxazepin-3-yl]acetyl]amino]ethyl]furan-3-carboxylic acid] |
| 137 to 139 °C | COc1cccc([C@@H]2O[C@@H](CC(=O)Nc3cccc(CCC(=O)O)c3)C(=O)N(CC(C)(C)CO)c3ccc(Cl)cc32)c1OC [Example 120, 3-[3-[[(3S,5R)-7-Chloro-5-(2,3-dimethoxyphenyl)-1-(3-hydroxy-2,2-dimethylpropyl)-2-oxo-1,2,3,5-tetrahydro-4,1-benzoxazepin-3-yl]acetyl]aminophenyl]propionic Acid] |
| 151 to 153 °C | COc1cccc([C@@H]2O[C@@H](CC(=O)Nc3cc(CCC(=O)O)ccc3F)C(=O)N(CC(C)(C)CO)c3ccc(Cl)cc32)c1OC [Example 121, 3-[3-[[[(3S,5R)-7-Chloro-5-(2,3-dimethoxyphenyl)-1-(3-hydroxy-2,2-dimethylpropyl)-2-oxo-1,2,3,5-tetrahydro-4,1-benzoxazepin-3-yl]acetyl]amino]-4-fluorophenyl]propionic Acid] |
| 147 to 149 °C | COc1cccc([C@H]2O[C@H](CC(=O)Nc3ccc(OCCCc4ccccc4)c(CCC(=O)O)c3)C(=O)N(CC(C)(C)CO)c3ccc(Cl)cc32)c1OC [Example 124, 3-[5-[[[(3R,5S)-7-Chloro-5-(2,3-dimethoxyphenyl)-1-(3-hydroxy-2,2-dimethylpropyl)-2-oxo-1,2,3,5-tetrahydro-4,1-benzoxazepin-3-yl]acetyl]amino]-2-(3-phenylpropyloxy)phenyl]propionic Acid] |
| 162 to 165 °C | COc1cccc([C@H]2O[C@H](CC(=O)Nc3cc(CCC(=O)O)ccc3OCCCc3ccccc3)C(=O)N(CC(C)(C)CO)c3ccc(Cl)cc32)c1OC [Example 125, 3-[3-[[[(3R,5S)-7-Chloro-5-(2,3-dimethoxyphenyl)-1-(3-hydroxy-2,2-dimethylpropyl)-2-oxo-1,2,3,5-tetrahydro-4,1-benzoxazepin-3-yl]acetyl]amino]-4-(3-phenylpropyloxy)phenyl]propionic Acid] |
| 171 to 174 °C | COc1cccc([C@H]2O[C@H](CC(=O)Nc3cccc4c(C(=O)O)cccc34)C(=O)N(CC(C)(C)CO)c3ccc(Cl)cc32)c1OC [Example 129, 5-[[2-[(3R,5S)-7-Chloro-5-(2,3-dimethoxyphenyl)-1-(3-hydroxy-2,2-dimethylpropyl)-2-oxo-1,2,3,5-tetrahydro-4,1-benzoxazepin-3-yl]acetyl]amino]-1-naphthoic acid] |
| 149 to 150 °C | COc1cccc([C@H]2O[C@H](CC(=O)Nc3ccc(OC(F)(F)C(=O)O)cc3)C(=O)N(CC(C)(C)CO)c3ccc(Cl)cc32)c1OC [Example 132, 2-[4-[[[(3R,5S)-7-Chloro-5-(2,3-dimethoxyphenyl)-1-(3-hydroxy-2,2-dimethylpropyl)-2-oxo-1,2,3,5-tetrahydro-4,1-benzoxazepin-3-yl]acetyl]amino]phenyloxy]-2,2-difluoroacetic acid] |
| 119 to 121 °C | COc1cccc([C@H]2O[C@H](CC(=O)Nc3cccc(OC(F)(F)C(=O)O)c3)C(=O)N(CC(C)(C)CO)c3ccc(Cl)cc32)c1OC [Example 133, 2-[3-[[[(3R,5S)-7-Chloro-5-(2,3-dimethoxyphenyl)-1-(3-hydroxy-2,2-dimethylpropyl)-2-oxo-1,2,3,5-tetrahydro-4,1-benzoxazepin-3-yl]acetyl]amino]phenyloxy]-2,2-difluoroacetic acid] |
| 123 to 125 °C | COc1cccc([C@H]2O[C@H](CC(=O)Nc3ccc(F)c(CCC(=O)O)c3)C(=O)N(CC(C)(C)CO)c3ccc(Cl)cc32)c1OC [Example 134, 3-[5-[[[(3R,5S)-7-Chloro-5-(2,3-dimethoxyphenyl)-1-(3-hydroxy-2,2-dimethylpropyl)-2-oxo-1,2,3,5-tetrahydro-4,1-benzoxazepin-3-yl]acetyl]amino]-2-fluorophenyl]propionic Acid] |
| 117 to 119 °C | COc1cccc([C@H]2O[C@H](CC(=O)Nc3cccc(CCCCC(=O)O)c3)C(=O)N(CC(C)(C)CO)c3ccc(Cl)cc32)c1OC [Example 135, 5-[3-[[[(3R,5S)-7-Chloro-5-(2,3-dimethoxyphenyl)-1-(3-hydroxy-2,2-dimethylpropyl)-2-oxo-1,2,3,5-tetrahydro-4,1-benzoxazepin-3-yl]acetyl]amino]phenyl]pentanoic acid] |
| 192 to 193 °C (dec.) | COc1cccc([C@H]2O[C@H](CC(=O)Nc3ccc(OCC(=O)O)cc3F)C(=O)N(CC(C)(C)CO)c3ccc(Cl)cc32)c1OC [Example 136] |
| 225 to 226 °C (dec.) | COc1ccc(C(C)(C)C(=O)O)cc1NC(=O)C[C@H]1O[C@H](c2cccc(OC)c2OC)c2cc(Cl)ccc2N(CC(C)(C)CO)C1=O [Example 137, 2-[3-[[2-[(3R,5S)-7-Chloro-5-(2,3-dimethoxyphenyl)-1-(3-hydroxy-2,2-dimethylpropyl)-2-oxo-1,2,3,5-tetrahydro-4,1-benzoxazepin-3-yl]acetyl]amino]-4-methoxyphenyl]-2,2-dimethylacetic acid] |
| 173 to 174 °C | COc1ccc(C(C)(C)CCC(=O)O)cc1NC(=O)C[C@H]1O[C@H](c2cccc(OC)c2OC)c2cc(Cl)ccc2N(CC(C)(C)CO)C1=O [Example 138, 4-[3-[[2-[(3R,5S)-7-Chloro-5-(2,3-dimethoxyphenyl)-1-(3-hydroxy-2,2-dimethylpropyl)-2-oxo-1,2,3,5-tetrahydro-4,1-benzoxazepin-3-yl]acetyl]amino]-4-methoxyphenyl]-4,4-dimethylbutanoic acid] |
| 136 to 138 °C | COc1ccc(CCCCC(=O)O)cc1NC(=O)C[C@H]1O[C@H](c2cccc(OC)c2OC)c2cc(Cl)ccc2N(CC(C)(C)CO)C1=O [Example 139, 5-[3-[[2-[(3R,5S)-7-Chloro-5-(2,3-dimethoxyphenyl)-1-(3-hydroxy-2,2-dimethylpropyl)-2-oxo-1,2,3,5-tetrahydro-4,1-benzoxazepin-3-yl]acetyl]amino]-4-methoxyphenyl]pentanoic acid] |
| 265 to 270 °C (dec.) | COc1cccc([C@H]2O[C@H](CC(=O)Nc3cccc(C(=O)O)n3)C(=O)N(CC(C)(C)CO)c3ccc(Cl)cc32)c1OC [Example 140, 6-[[[(3R,5S)-5-(2,3-Dimethoxyphenyl)-7-chloro-1-(3-hydroxy-2,2-dimethylpropyl)-2-oxo-1,2,3,5-tetrahydro-4,1-benzoxazepin-3-yl]acetyl]amino]-2-pyridinecarboxylic acid] |
| 241 to 242.2 °C | COc1cccc([C@H]2O[C@H](CC(=O)Nc3ncc(C(=O)O)s3)C(=O)N(CC(C)(C)CO)c3ccc(Cl)cc32)c1OC [Example 141, 2-[[[(3R,5S)-7-Chloro-5-(2,3-dimethoxyphenyl)-1-(3-hydroxy-2,2-dimethylpropyl)-2-oxo-1,2,3,5-tetrahydro-4,1-benzoxazepin-3-yl]acetyl]amino]-1,3-thiazole-5-carboxylic acid] |

| SMILES | melting point |
| --- | --- |
| COc1cccc([C@H]2O[C@H](CC(=O)Nc3cc(C(=O)O)ccc3F)C(=O)N(CC(C)(C)COC(C)=O)c3ccc(Cl)cc32)c1OC [Example 107, 3-[[[(3R,5S)-1-(3-Acetoxy-2,2-dimethylpropyl)-7-chloro-5-(2,3-dimethoxyphenyl)-2-oxo-1,2,3,5-tetrahydro-4,1-benzoxazepin-3-yl]acetyl]amino]-4-fluorobenzoic acid] | 146 to 149 °C |
